Literature values in patent publication US20140088145A1 (Teva Pharmaceutical Industries, Ltd., priority 2012, published 2014).

Experiments:
[1] = tested on: Huntington's disease patients; settings: twice-daily doses of 45 mg over 12 weeks
[2] = tested on: Huntington's disease patients; settings: 45 mg daily or 90 mg daily for 6 months
[3] = in vivo

CCCN1CCC(c2cccc(S(C)(=O)=O)c2)CC1 [pridopidine, 4-[3-(methylsulfonyl)phenyl]-1-propyl-piperidine]
effect on total motor function [1]: significant effect on total motor function
tertiary endpoint UHDRS-TMS (changes in motor function) and individual items within the mMS (gait, dysarthria) [2]: statistically significant effect of treatment
symptomatic relief incl. hand movements, gait and balance (patients with HD): significant symptomatic relief

C#CCN[C@@H]1CCc2ccccc21 [rasagiline, R(+)-N-propargyl-l-aminoindan]
absolute bioavailability [3]: about 36%
